What was measured:
[1] = test system: leukocyte recruitment into air pouch; assay: Air pouch model of acute inflammation (carrageenan); assay type: in vivo, mice; conditions: 4 mg/kg i.p. 15 min before 1% carrageenan, exudate after five hours
Protocol: Air pouches were produced according to standard procedures (Garcia-Ramallo et al., 2002) using C57bk6 mice (wild-type) or strain-matched mice lacking both copies of the MIF gene (MIF−/−) by injecting sterile air s.c. on day 0 (6 ml) and day 3 (3 ml). […] 15 min. later the animals were challenged by injecting 1 ml 1% carrageenan (in PBS) into the air pouch cavity. Five hours after carrageenan injection the animals were sacrificed, the pouches washed with PBS, exudates collected, and the total number of infiltrating cells quantitated.

[2] = test system: LPS-stimulated RAW 267.4 cells; assay: TNF secretion from LPS-stimulated RAW macrophages (ELISA); assay type: cell-based; conditions: 0.1 μg/ml LPS
Protocol: After 16 h, cell culture supernatants were collected for determination of TNF concentration by enzyme-linked immunosorbent assay (R & D Systems).

[3] = test system: cecal ligation and puncture (CLP) model of sepsis; assay: Cecal ligation and puncture (CLP) model of sepsis; assay type: in vivo, mice
Protocol: In anesthetized male Balb/C mice (ketamine 100 mg/kg and xylazine 8 mg/kg administered intramuscularly), abdominal access was gained via a midline incision. The cecum was isolated and ligated with a 6-0 silk ligature below the ileocecal valve, and the cecum punctured once with a 22 G needle, stool (approximately 1 mm^3) extruded from the hole, and the cecum placed back into the abdominal cavity. The abdomen was closed with two layers of 6-0 Ethilon sutures. Antibiotics were administered immediately after CLP (Premaxin 0.5 mg/kg, subcutaneously, in a total volume of 0.5 ml/mouse) and a single dose of resuscitative fluid (normal saline solution) was administered subcutaneously (20 ml/kg-body weight) immediately after CLP. […] Additionally, two injections were given on day 2 and day 3.
The cecal ligation and puncture experiment was repeated in a second group of animals. The experimental procedure was identical to that used in the preceding example.

[4] = cited from earlier work

Row | SMILES | leukocyte recruitment (number of infiltrating cells), wild-type mice ([1]; C57bk6 wild-type, p<0.04 relative to vehicle) | leukocyte recruitment (number of infiltrating cells), MIF knockout mice ([1]; MIF−/− mice, n.s.) | IC50 ([2]; RAW267.4, 30 minutes preincubation, supernatants after 16 h, read-out: IC50, inhibition of the release of TNFα) | survival ([3]; male Balb/C mice, 4 mg/kg i.p. 24 hours after CLP, further injections on day 2 and day 3, n=10, vehicle 2/10) | survival, repeat experiment in a second group of animals ([3]; procedure identical to the first CLP experiment, FIG. 4) | inhibitory effect on TNF release compared with ISO-1 ([2]; 0.01-50 μM, 16 h) | free (unbound) hormone as percentage of the total hormone in plasma [4]
1 | N[C@H](Cc1cc(I)c(Oc2cc(I)c(O)c(I)c2)c(I)c1)C(=O)O [D-T4, dextrothyroxine] | inhibits leukocyte recruitment | not in MIF knockout animals | 1000 nM | 6/10 | dramatically increases survival |  | 
2 | N[C@@H](Cc1cc(I)c(Oc2cc(I)c(O)c(I)c2)c(I)c1)C(=O)O [L-T4, L-thyroxine] |  |  |  |  |  | more potent than ISO-1 | about 0.03%
